{
  "source": "patent US6824990B1",
  "about": "“Methods of detecting and modulating oligomerization of G protein-coupled receptors” (priority 1999, dated 2004)",
  "key": {"[1]": {"biological_target": "T1, Ste2Δtail-CFP and Ste2Δtail-YFP (Saccharomyces cerevisiae, UniProt D6VTK4)", "T1 construct": "CFP and YFP were joined 8 amino acids (position 304) beyond transmembrane domain VII of the α-factor receptor; expressed in transfected cells; host or cells: S. cerevisiae KBY58 (ste2Δ), single copy plasmids, STE2 promoter", "T1 sequence (D6VTK4 1-304, stated change not applied)": "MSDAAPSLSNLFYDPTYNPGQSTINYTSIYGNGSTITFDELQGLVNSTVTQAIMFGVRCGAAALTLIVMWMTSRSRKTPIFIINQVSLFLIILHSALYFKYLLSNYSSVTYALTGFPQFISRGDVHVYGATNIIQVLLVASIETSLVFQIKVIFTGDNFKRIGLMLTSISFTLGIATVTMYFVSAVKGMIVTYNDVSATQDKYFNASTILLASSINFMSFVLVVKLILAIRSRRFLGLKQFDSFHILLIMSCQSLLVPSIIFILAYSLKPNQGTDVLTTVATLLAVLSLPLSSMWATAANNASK", "test": "FRET in purified plasma membrane fractions", "assay_type": "biochemical, S. cerevisiae", "protocol": "Yeast cells expressed tailless α-factor receptors fused to CFP or YFP (Ste2-CFP or -YFP) and/or glucose transporters fused to YFP (Hxt1-YFP), as indicated. Untagged α-factor receptors (Ste2) or glucose transporters (Hxt1) were overexpressed where indicated. Intact cells (panels a-g) or plasma membrane fractions (panels h-i) were excited at the λmax of CFP (440 nm) and fluorescence emission was detected by scanning fluorometry. Fluorescence emission due to FRET (FRET) was determined as: (emission spectrum of cells co-expressing CFP and YFP fusion proteins)—(emission spectrum of cells expressing CFP fusion alone)—(emission spectrum of cells expressing YFP fusion alone). The efficiency of FRET (panel e) was determined as: (integrated FRET curve)/(integrated emission curve obtained upon direct excitation of YFP at 490 nm). In panels f, g and i, only the FRET emission curves are shown for experiments performed under the indicated conditions. […]\nCFP and YFP were joined 8 amino acids (position 304) beyond transmembrane domain VII of the α-factor receptor (STE2 gene product) and at the immediate C-terminus of a glucose transporter (HXT1 gene product). These fusion proteins were expressed from the STE2 promoter on single copy plasmids with different selectable markers, allowing them to be co-expressed at similar levels as shown by quantitation of CFP and YFP fluorescence. […]"}, "[2]": {"tested_on": "Ste2Δtail-CFP and Ste2Δtail-YFP", "test": "FRET between CFP- and YFP-tagged tailless α-factor receptors in intact yeast cells", "assay_type": "cell-based, S. cerevisiae", "conditions": "cells treated with latrunculin B", "protocol": "(§1) Yeast cells expressed tailless α-factor receptors fused to CFP or YFP (Ste2-CFP or -YFP) and/or glucose transporters fused to YFP (Hxt1-YFP), as indicated. Untagged α-factor receptors (Ste2) or glucose transporters (Hxt1) were overexpressed where indicated. Intact cells (panels a-g) or plasma membrane fractions (panels h-i) were excited at the λmax of CFP (440 nm) and fluorescence emission was detected by scanning fluorometry. Fluorescence emission due to FRET (FRET) was determined as: (emission spectrum of cells co-expressing CFP and YFP fusion proteins)—(emission spectrum of cells expressing CFP fusion alone)—(emission spectrum of cells expressing YFP fusion alone). The efficiency of FRET (panel e) was determined as: (integrated FRET curve)/(integrated emission curve obtained upon direct excitation of YFP at 490 nm). In panels f, g and i, only the FRET emission curves are shown for experiments performed under the indicated conditions. The results shown in each panel are representative of at least 6 independent experiments, with equivalent results.\n(§2) CFP and YFP were joined 8 amino acids (position 304) beyond transmembrane domain VII of the α-factor receptor (STE2 gene product) and at the immediate C-terminus of a glucose transporter (HXT1 gene product). These fusion proteins were expressed from the STE2 promoter on single copy plasmids with different selectable markers, allowing them to be co-expressed at similar levels as shown by quantitation of CFP and YFP fluorescence. Ste2Δtail-CFP and -YFP fusions had normal agonist binding affinities (1-2 nM) and cell surface expression (6-8,000 receptors/cell), as determined by radioligand binding assays. […] Yeast cells (KBY58, a ste2Δ mutant) expressing CFP and/or YFP fusion proteins were grown at 30° C. in selective media to a density of 10^7 cells/ml, washed, suspended in 50 mM PIPES, pH 6.0 and analyzed by scanning fluorometry. […] Cells (10^7 cells in 3 ml) or membranes (20 μg protein in 3 ml) were irradiated at 440 nm to excite CFP and fluorescence emission was recorded from 460-610 nm. […]"}, "[3]": {"biological_target": "T1, Ste2Δtail-CFP and Ste2Δtail-YFP", "test": "FRET between CFP- and YFP-tagged tailless α-factor receptors in intact yeast cells", "assay_type": "cell-based, S. cerevisiae", "protocol": "as §1, §2"}},
  "data": [
    {"molecule": "Nc1nc2c(ncn2[C@@H]2O[C@H](COP(=O)(O)OP(=O)(O)OP(O)(O)=S)[C@@H](O)[C@H]2O)c(=O)[nH]1", "note": "[GTP-γS]", "values": [
      {"measurement": "apparent efficiency of FRET", "setting": "[1]; 5 μM agonist and 50 μM GTP-γS (activated and uncoupled), indistinguishable from inactive, n=11", "result": "20%±2%"},
      {"measurement": "effect on efficiency of FRET", "setting": "[1]; given membrane preparation, GTP-γS 50 μM", "result": "no effect"}
    ]},
    {"molecule": "C/C1=C/C(=O)O[C@@H]2C[C@@H](CC[C@H](C)/C=C\\CC1)O[C@@](O)([C@@H]1CSC(=O)N1)C2", "note": "[latrunculin B]", "values": [
      {"measurement": "FRET when the actin cytoskeleton was disassembled", "setting": "[2]", "result": "FRET was detected"}
    ]},
    {"molecule": "desTrp1,Ala3,Nle12-α-factor", "values": [
      {"measurement": "effect on efficiency of FRET", "setting": "[3]; given transformant, 1 nM-5 μM, 1-20 min after addition", "result": "no effect"},
      {"measurement": "apparent efficiency of FRET", "setting": "[3]; treated cells, sub-saturating to saturating ligand concentrations, indistinguishable from control cells, n=6", "result": "18%±1"}
    ]}
  ]
}
